From US20250051263A1, “NOVEL IONIZABLE LIPIDS AND LIPID NANOPARTICLES AND METHODS OF USING THE SAME” (Sail Biomedicines, Inc., priority 2021, published 2025)
Where “and” joins values, the source holds several entries; their conditions need not be identical. Identical values can stand only once.

Assays:
[1] = TNS (pKa) assay, apparent LNP pKa; assay type: physicochemical; conditions: for pKa (TNS): Example 5 LNP lipid:DOPE:Plant Cholesterol:DMPE-PEG2k 35:16:46.5:2.5, FLUC/EPO 1:1 mRNA, N:P 6:1
Procedure: (protocol adapted from: A Novel Amino Lipid Series for mRNA Delivery: Improved Endosomal Escape and Sustained Pharmacology and Safety in Non-human Primates, Sabnis, Staci et al., Molecular Therapy, Volume 26, Issue 6, 1509-1519) 20 buffers (10 mM sodium phosphate, 10 mM sodium borate, 10 mM sodium citrate, and 150 mM sodium chloride, in Distilled Water) of unique pH values ranging from 3.0-12.0 were prepared using 1M sodium hydroxide and 1M hydrochloric acid. 3.25 uL of LNPs (0.04 mg/mL mRNA, in PBS) were incubated with 2 μL of TNS reagent (0.3 mM, in DMSO) and 90 μL of buffer for each pH value (described above) in a 96-well black-walled plate. Each pH condition was performed in triplicate wells. The TNS fluorescence was measured using a Biotek Cytation Plate reader at excitation/emission wavelengths of 321/445 nm. The fluorescence values were then plotted and fit using a 4-parameter sigmoid curve. From the fit, the pH value yielding the half-maximal fluorescence was calculated and reported as the apparent LNP pKa value.
For pKa measurement, a […] assay was conducted according to those described in Sabnis et al., Molecular Therapy, 26(6):1509-19), which is incorporated herein by reference in its entirety. Briefly, 20 buffers (10 mM sodium phosphate, 10 mM sodium borate, 10 mM sodium citrate, and 150 mM sodium chloride, in distilled Water) of unique pH values ranging from 3.0-12.0 were prepared using 1M sodium hydroxide and 1M hydrochloric acid. 3.25 μL of a LNP composition (0.04 mg/mL mRNA, in PBS) was incubated with 2 μL of TNS reagent (0.3 mM, in DMSO) and 90 μL of buffer for each pH value (described above) in a 96-well black-walled plate. Each pH condition was performed in triplicate wells. The TNS fluorescence was measured using a Biotek Cytation Plate reader at excitation/emission wavelengths of 321/445 nm. The fluorescence values were then plotted and fit using a 4-parameter sigmoid curve. From the fit, the pH value yielding the half-maximal fluorescence was calculated and reported as the apparent LNP pKa value.

[2] = LNP size and polydispersity, Zetasizer Ultra; assay type: physicochemical
Excerpt: All other compositions (i.e., compositions of MC3 (a commercially available ionizable lipid having a chemical name of (6Z,9Z,28Z,31Z)-heptatriacont-6,9,28,31-tetraene-19-yl 4-(dimethylamino)butanoate, and compositions of novel ionizable lipids 7669, 7671, 7668, 767, 7650) are composed of ionizable lipid:structural lipid:sterol:PEG-lipid (SDA lipid #:DSPC:cholesterol:14:0 PEG2000 PE) at a molar ratio of […], respectively. Lipids are solubilized in ethanol. Compositions are then handled as above, except the formulations are maintained at ionizable lipid to mRNA N:P ratio of 6:1. The lipid mix and mRNA solution are mixed at a 1:3 ratio by volume, respectively, on a NanoAssemblr Ignite (Precision Nanosystems) at a total flow rate of 9 mL/min. Resulting compositions are then loaded into Slide-A-Lyzer G2 dialysis cassettes (10 k MWCO) and dialyzed in 200 times sample volume of 1×PBS for 4 hrs at room temp with gentle stirring. The PBS is refreshed, and the compositions are further dialyzed for at least 14 hrs at 4° C. with gentle stirring. The dialyzed compositions are then collected and concentrated by centrifugation at 2000×g using Amicon Ultra centrifugation filters (100 k MWCO). Concentrated particles are characterized for size, polydispersity, and particle concentration using Zetasizer Ultra (Malvern Panalytical) and for mRNA encapsulation efficiency using Quant-iT RiboGreen RNA Assay Kit (ThermoFisher Scientific).
The lipid mix and mRNA solution were mixed at a 1:3 ratio by volume, respectively, on the NanoAssemblr Ignite (Precision Nanosystems) at a total flow rate of 9 mL/min. Resulting formulations were then loaded into Slide-A-Lyzer G2 dialysis cassettes (10 k MWCO) and dialyzed in 200 times sample volume of 1×PBS for 2 hrs at room temperature. The PBS was refreshed, and the formulations were further dialyzed for at least 14 hrs at 4° C. with gentle stirring. The dialyzed formulations were then collected and concentrated by centrifugation at 3000×g using Amicon Ultra centrifugation filters (100 k MWCO). The concentrated formulations were characterized for size, polydispersity, and particle concentration using Zetasizer Ultra (Malvern Panalytical) and for mRNA encapsulation efficiency using Quant-iT RiboGreen RNA Assay Kit (ThermoFisher Scientific).
For each LNP composition, the lipid mix and mRNA solution were mixed at a 1:3 ratio by volume, respectively, on a NanoAssemblr Ignite (Precision Nanosystems) at a total flow rate of 9 mL/min. The resulting compositions were then loaded into Slide-A-Lyzer G2 dialysis cassettes (10 k MWCO) and dialyzed in 200 times sample volume of 1×PBS for 2 hours at room temperature with gentle stirring. The PBS was refreshed, and the compositions were further dialyzed for at least 14 hours at 4° C. with gentle stirring. The dialyzed compositions were then collected and concentrated by centrifugation at 3000×g using Amicon Ultra centrifugation filters (100 k MWCO). The concentrated particles were characterized for size, polydispersity, and particle concentration using Zetasizer Ultra (Malvern Panalytical) and for mRNA encapsulation efficiency using Quant-iT RiboGreen RNA Assay Kit (ThermoFisher Scientific).

[3] = Example 5 LNP lipid:DOPE:Plant Cholesterol:DMPE-PEG2k 35:16:46.5:2.5, FLUC/EPO 1:1 mRNA, N:P 6:1
[4] = LNP ionizable lipid:DSPC:Plant Chol.:DMPE-PEG2k 50:10:38.5:1.5
[5] = LNP ionizable lipid:DOPE:Plant Chol.:DMPE-PEG2k 35:16:46.5:2.5 (Table 1)

Row | SMILES | pKa (TNS) [1] | PDI [2, 3] | Size (nm) [2, 3] [nm] | PDI [2, 4] | Size (nm) [2, 4] [nm] | pKa [1, 5] | pKa [1, 4] | PDI [2, 5] | Size (nm) [2, 5]
1 | CCCCCCCCC(CCCCCCCC)OC(=O)CCCCCCCN(CCCCCCCC(=O)OC(CCCCCCCC)CCCCCCCC)CCNC(=O)CCCC(=O)NCCN(CCCCCCCC(=O)OC(CCCCCCCC)CCCCCCCC)CCCCCCCC(=O)OC(CCCCCCCC)CCCCCCCC [Compound 2320, 1-octylnonyl 8-[2-[[5-[2-[bis[8-(1-octylnonoxy)-8-oxo-octyl]amino]ethylamino]-5-oxo-pentanoyl]amino]ethyl-[8-(1-octylnonoxy)-8-oxo-octyl]amino]octanoate] | 6.07 | 0.15 | 126.1 |  |  |  |  |  | 
2 | CCCCCCCCCOC(=O)CCCCCCCN(CCCCCCCC(=O)OC(CCCCCCCC)CCCCCCCC)CCNC(=O)CCC(=O)NCCN(CCCCCCCC(=O)OCCCCCCCCC)CCCCCCCC(=O)OC(CCCCCCCC)CCCCCCCC [Compound 2213, nonyl 8-[2-[[4-[2-[(8-nonoxy-8-oxo-octyl)-[8-(1-octylnonoxy)-8-oxo-octyl]amino]ethylamino]-4-oxo-butanoyl]amino]ethyl-[8-(1-octylnonoxy)-8-oxo-octyl]amino]octanoate] | 6.54 | 0.10 | 63.9 |  |  |  |  |  | 
3 | CCCCCCCCCCCOC(=O)CCCCCN(CCCCCCCC(=O)OC(CCCCCCCC)CCCCCCCC)CCNC(=O)CC(=O)NCCN(CCCCCCCC(=O)OC(CCCCCCCC)CCCCCCCC)CCCCCC(=O)OCCCCCCCCCCC [Compound 2220, 1-octylnonyl 8-[2-[[3-[2-[[8-(1-octylnonoxy)-8-oxo-octyl]-(6-oxo-6-undecoxy-hexyl)amino]ethylamino]-3-oxo-propanoyl]amino]ethyl-(6-oxo-6-undecoxy-hexyl)amino]octanoate] | 6.02 | 0.17 | 71.3 | 0.03 | 89.17 |  |  |  | 
4 | C=C(CN(CCCCCCCC(=O)OC(CCCCCCCC)CCCCCCCC)CCCCCC(=O)OCCCCCCCCCCC)CN(CCCCCCCC(=O)OC(CCCCCCCC)CCCCCCCC)CCCCCC(=O)OCCCCCCCCCCC [Compound 2253, 1-octylnonyl 8-[2-[[[8-(1-octylnonoxy)-8-oxo-octyl]-(6-oxo-6-undecoxy-hexyl)amino]methyl]allyl-(6-oxo-6-undecoxy-hexyl)amino]octanoate] | 3.66 | 0.23 | 107.9 | 0.18 | 120.70 | 3.66 | 3.48 | 0.23 | 107.87 nm
5 | CCCCCCCCCCC(CC)OC(=O)CCCCCN(CCCCCCCC(=O)OC(CCCCCCCC)CCCCCCCC)CCNC(=O)/C=C/C(=O)NCCN(CCCCCCCC(=O)OC(CCCCCCCC)CCCCCCCC)CCCCCC(=O)OC(CC)CCCCCCCCCC (stereo not drawn) [Compound 2378, 1-octylnonyl 8-[[6-(1-ethylundecoxy)-6-oxo-hexyl]-[2-[[(E)-4-[2-[[6-(1-ethylundecoxy)-6-oxo-hexyl]-[8-(1-octylnonoxy)-8-oxo-octyl]amino]ethylamino]-4-oxo-but-2-enoyl]amino]ethyl]amino]octanoate] | 6.33 | 0.08 | 107.8 |  |  |  |  |  | 
6 | CCCCCCCCCCCOC(=O)CCCCCN(CCCCCCCC(=O)OC(CCCCCCCC)CCCCCCCC)CCN1CCN(CCN(CCCCCCCC(=O)OC(CCCCCCCC)CCCCCCCC)CCCCCC(=O)OCCCCCCCCCCC)CC1 [Compound 2248, 1-octylnonyl 8-[2-[4-[2-[[8-(1-octylnonoxy)-8-oxo-octyl]-(6-oxo-6-undecoxy-hexyl)amino]ethyl]piperazin-1-yl]ethyl-(6-oxo-6-undecoxy-hexyl)amino]octanoate] | 6.1 | 0.10 | 83.5 |  |  |  |  |  | 
7 | CCCCCCCCCCCOC(=O)CCCCCN(CCCCCCCC(=O)OC(CCCCCC)CCCCCCCC)CCNC(=O)CCC(=O)NCCN(CCCCCCCC(=O)OC(CCCCCC)CCCCCCCC)CCCCCC(=O)OCCCCCCCCCCC (stereo not drawn) [Compound 2390, 1-hexylnonyl 8-[2-[[4-[2-[[8-(1-hexylnonoxy)-8-oxo-octyl]-(6-oxo-6-undecoxy-hexyl)amino]ethylamino]-4-oxo-butanoyl]amino]ethyl-(6-oxo-6-undecoxy-hexyl)amino]octanoate] | 6.82 | 0.09 | 71.6 |  |  |  |  |  | 
8 | CCCCCCCCCCCOC(=O)CCCCCN(CCCCCCCC(=O)OC(CCCCCCCC)CCCCCCCC)CCOC(=O)OCCN(CCCCCCCC(=O)OC(CCCCCCCC)CCCCCCCC)CCCCCC(=O)OCCCCCCCCCCC [Compound 2218, 1-octylnonyl 8-[2-[2-[[8-(1-octylnonoxy)-8-oxo-octyl]-(6-oxo-6-undecoxy-hexyl)amino]ethoxycarbonyloxy]ethyl-(6-oxo-6-undecoxy-hexyl)amino]octanoate] | 4.34 | 0.09 | 70.0 | 0.05 | 96.55 |  |  | 0.17 and 0.09 | 71.28 nm and 70.00 nm
9 | CCCCCCCCCCCC(=O)OCCCCCN(CCCCCCCC(=O)OC(CCCCCCCC)CCCCCCCC)CCNC(=O)CCC(=O)NCCN(CCCCCCCC(=O)OC(CCCCCCCC)CCCCCCCC)CCCCCOC(=O)CCCCCCCCCCC [Compound 2354, 5-[2-[[4-[2-[5-dodecanoyloxypentyl-[8-(1-octylnonoxy)-8-oxo-octyl]amino]ethylamino]-4-oxo-butanoyl]amino]ethyl-[8-(1-octylnonoxy)-8-oxo-octyl]amino] pentyl dodecanoate] | 6.47 | 0.10 | 69.2 |  |  |  |  |  | 
